pIC50: −log10 of the molar value. Activity calls are given as the source filed them. The rule behind the calls is not given here.
Tests used:
[1] = target: T1, Beta-galactoside alpha-2,6-sialyltransferase 1 (Homo sapiens, UniProt P15907); experiment: Inhibition of human alpha-2,6-ST6GAL1 assessed as reduction in sialylated-product formation using Gal-beta1-4GlcNac and CMP-NeuSAc incubated for 15 mins by reverse-phase HPLC analysis
T1 sequence (P15907 whole entry): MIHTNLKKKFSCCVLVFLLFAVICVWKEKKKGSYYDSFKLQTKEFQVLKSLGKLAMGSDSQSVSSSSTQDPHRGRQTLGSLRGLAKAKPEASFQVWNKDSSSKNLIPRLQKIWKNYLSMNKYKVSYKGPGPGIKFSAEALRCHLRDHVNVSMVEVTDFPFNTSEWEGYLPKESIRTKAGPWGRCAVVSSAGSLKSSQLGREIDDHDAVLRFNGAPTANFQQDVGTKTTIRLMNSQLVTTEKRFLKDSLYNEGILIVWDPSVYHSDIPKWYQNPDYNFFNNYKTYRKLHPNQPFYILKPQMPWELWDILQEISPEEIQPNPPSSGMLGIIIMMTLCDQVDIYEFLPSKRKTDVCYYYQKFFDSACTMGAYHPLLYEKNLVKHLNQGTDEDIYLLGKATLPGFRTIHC

[2] = target: T2, CMP-N-acetylneuraminate-beta-1,4-galactoside alpha-2,3-sialyltransferase (Rattus norvegicus, UniProt Q02734); experiment: Inhibition of rat alpha-2,3-N-ST3GALIII assessed as reduction in sialylated-product formation using Gal-beta1-4Glc and CMP-NeuSAc incubated for 1.5 hrs by reverse-phase HPLC analysis
T2 sequence (Q02734 whole entry): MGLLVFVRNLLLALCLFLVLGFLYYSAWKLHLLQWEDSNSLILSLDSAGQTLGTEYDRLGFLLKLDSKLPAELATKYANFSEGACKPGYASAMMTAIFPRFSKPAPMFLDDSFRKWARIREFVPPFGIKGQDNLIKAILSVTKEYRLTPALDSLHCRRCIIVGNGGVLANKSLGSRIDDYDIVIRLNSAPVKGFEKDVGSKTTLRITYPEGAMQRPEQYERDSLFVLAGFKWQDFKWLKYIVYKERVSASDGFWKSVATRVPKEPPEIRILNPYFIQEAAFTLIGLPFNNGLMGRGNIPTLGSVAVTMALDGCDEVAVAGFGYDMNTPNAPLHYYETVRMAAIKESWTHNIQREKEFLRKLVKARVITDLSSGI

[3] = Apparent permeability at pH 7.4 by PAMPA
[4] = tested on: MDA-MB-231; experiment: Inhibition of Sialyltransferase in human MDA-MB-231 cells assessed as reduction in IKKalpha/beta Ser176/180 phosphorylation level at 10 to 20 uM incubated for 48 hrs by immunoblot analysis; format: cell-based; details: dose 10-20 µM
[5] = organism: Rattus norvegicus; experiment: Selectivity ratio of inhibition of rat alpha-2,3-O-ST3GALI at 1000 uM to IC50 for inhibition of rat alpha-2,3-N-ST3GALIII
[6] = Toxicity in human MDA-MB-231 cells assessed as cell survival at >60 uM relative to control; format: cell-based; details: read-out: Survival
[7] = organism: Rattus norvegicus; experiment: Selectivity ratio of inhibition of rat alpha-2,3-O-ST3GALI at 500 uM to IC50 for inhibition of rat alpha-2,3-N-ST3GALIII
[8] = tested on: MDA-MB-231; experiment: Inhibition of Sialyltransferase in human MDA-MB-231 cells assessed as reduction in paxillin Tyr118 phosphorylation level at 10 to 20 uM incubated for 48 hrs by immunoblot analysis; format: cell-based; details: dose 10-20 µM
[9] = tested on: MDA-MB-231; experiment: Inhibition of Sialyltransferase in human MDA-MB-231 cells assessed as reduction in FAK Tyr925 phosphorylation level at 10 to 20 uM incubated for 48 hrs by immunoblot analysis; format: cell-based; details: dose 10-20 µM
[10] = Selectivity ratio of IC50 for of inhibition of rat alpha-2,3-O-ST3GALI to IC50 for inhibition of human alpha-2,6-ST6GAL1
[11] = tested on: MDA-MB-231; experiment: Inhibition of Sialyltransferase in human MDA-MB-231 cells assessed as reduction in integrin isoforms expression (alphaV/alpha5/beta1/beta3/beta4/beta5) at 10 to 20 uM incubated for 48 hrs by immunoblot analysis; format: cell-based; details: dose 10-20 µM
[12] = tested on: MDA-MB-231; experiment: Inhibition of serum-induced cell migration of human MDA-MB-231 cells incubated for 16 hrs by Boyden chamber assay; format: functional, cell-based; details: MDA-MB-231, 16 h
[13] = target: T3, Sialyltransferase ST3Gal-I (Rattus norvegicus) (UniProt Q6H8N0); experiment: Inhibition of rat alpha-2,3-O-ST3GALI assessed as reduction in sialylated-product formation at 500 uM using p-nitrophenyl T-antigen and CMP-NeuSAc incubated for 15 mins by reverse-phase HPLC analysis relative to control
T3 sequence (whole entry): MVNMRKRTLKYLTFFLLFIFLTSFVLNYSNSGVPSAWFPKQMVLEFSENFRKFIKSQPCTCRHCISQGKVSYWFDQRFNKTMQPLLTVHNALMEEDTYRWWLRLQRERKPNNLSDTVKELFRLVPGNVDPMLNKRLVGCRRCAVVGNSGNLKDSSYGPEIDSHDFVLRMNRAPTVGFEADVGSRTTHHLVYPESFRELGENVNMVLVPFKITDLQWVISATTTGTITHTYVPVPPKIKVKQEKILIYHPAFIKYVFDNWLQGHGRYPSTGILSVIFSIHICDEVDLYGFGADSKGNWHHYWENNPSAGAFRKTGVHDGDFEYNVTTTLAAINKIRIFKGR

[14] = tested on: MDA-MB-231; experiment: Inhibition of Sialyltransferase in human MDA-MB-231 cells assessed as reduction in NFkappaB Ser536 phosphorylation level at 10 to 20 uM incubated for 48 hrs by immunoblot analysis; format: cell-based; details: dose 10-20 µM
[15] = tested on: MDA-MB-231; experiment: Inhibition of Sialyltransferase in human MDA-MB-231 cells assessed as reduction in FAK Tyr576/577 phosphorylation level at 10 to 20 uM incubated for 48 hrs by immunoblot analysis; format: cell-based; details: dose 10-20 µM
[16] = tested on: MDA-MB-231; experiment: Inhibition of Sialyltransferase in human MDA-MB-231 cells assessed as reduction in FAK Tyr397 phosphorylation level at 10 to 20 uM incubated for 48 hrs by immunoblot analysis; format: cell-based; details: dose 10-20 µM
[17] = tested on: MDA-MB-231; experiment: Inhibition of Sialyltransferase in human MDA-MB-231 cells assessed as reduction in IkappaB-alpha Ser32 phosphorylation level at 10 to 20 uM incubated for 48 hrs by immunoblot analysis; format: cell-based; details: dose 10-20 µM
[18] = target: T3, Sialyltransferase ST3Gal-I (Rattus norvegicus); experiment: Inhibition of rat alpha-2,3-O-ST3GALI assessed as reduction in sialylated-product formation at 1 mM using p-nitrophenyl T-antigen and CMP-NeuSAc incubated for 15 mins by reverse-phase HPLC analysis relative to control
[19] = tested on: MDA-MB-231; experiment: Inhibition of serum-induced cell migration of human MDA-MB-231 cells at 20 uM incubated for 16 hrs by Boyden chamber assay; format: functional, cell-based
[20] = tested on: MDA-MB-231; experiment: Inhibition of Sialyltransferase in human MDA-MB-231 cells assessed as suppression of sialylation of integrin subunit beta1/beta3/beta4/beta5 at 10 to 20 um after 48 hrs by Western blot analysis; format: cell-based; details: dose 10-20 µM
[21] = tested on: MDA-MB-231; experiment: Inhibition of Sialyltransferase in human MDA-MB-231 cells assessed as decrease p-talin-1 association with integrins beta1 and beta 3 after 48 hrs by immunofluorescence and coimmunoprecipitation assay; format: cell-based
[22] = tested on: MDA-MB-231; experiment: Antitumor activity against luciferase-tagged human MDA-MB-231 cells xenografted in BALB/c mouse assessed as induction of tumor suppression at 10 mg/kg/3 days, ip measured after 50 days; format: functional, organism-based; details: time 50.0 day
[23] = tested on: MDA-MB-231; experiment: Antiangiogenesis activity against luciferase-tagged human MDA-MB-231 cells xenografted in BALB/c mouse assessed as reduction in cell proliferation by measuring Ki67 expression at 10 mg/kg/3 days, ip measured after 50 days by immunostaining; format: functional, organism-based; details: time 50.0 day
[24] = tested on: MDA-MB-231; experiment: Antiangiogenesis activity against luciferase-tagged human MDA-MB-231 cells xenografted in BALB/c mouse assessed as reduction in number of vessels surrounding tumor nodules by measuring CD31 expression at 10 mg/kg/3 days, ip measured after 50 days by immunostaining; format: functional, organism-based; details: time 50.0 day
[25] = tested on: MDA-MB-231; experiment: Antitumor activity against luciferase-tagged human MDA-MB-231 cells xenografted in BALB/c mouse assessed as induction of delayed lung metastasis at 10 mg/kg/3 days, ip measured after 50 days; format: functional, organism-based; details: time 50.0 day
[26] = tested on: MDA-MB-231; experiment: Antitumor activity against luciferase-tagged human MDA-MB-231 cells xenografted in BALB/c mouse assessed as reduction in metastatic nodules in lymph node at 10 mg/kg/3 days, ip measured after 50 days by H and E staining based histological analysis; format: functional, organism-based; details: time 50.0 day
[27] = tested on: MDA-MB-231; experiment: Antitumor activity against luciferase-tagged human MDA-MB-231 cells xenografted in BALB/c mouse assessed as reduction in number of metastatic foci in lungs at 10 mg/kg/3 days, ip measured after 50 days by histological analysis; format: functional, organism-based; details: time 50.0 day

For `C[C@H](CCC(=O)OCCOCCOCCOCCN=[N+]=[N-])[C@H]1CC[C@H]2[C@@H]3CC[C@@H]4C[C@H](OC(=O)[C@H](CC(=O)O)Nc5ccc([N+](=O)[O-])c6nonc56)CC[C@]4(C)[C@H]3CC[C@]12C`, the pIC50 [1] was 5.31, the pIC50 [2] was 6.00 and the Papp [3] was 9 ×10⁻⁶ cm/s. The inhibition [4] was “Active”, the Selectivity ratio [5] was < 990 and the viability [6] was > 90%. The Selectivity ratio [7] was > 495, the inhibition [8] was “Dose-dependent effect” and the inhibition [9] was “Dose-dependent effect”. For the same compound, the Ratio IC50 [10] was > 102, the inhibition [11] was “Dose-dependent effect” and the pIC50 [12] was 4.92. For the same compound, the inhibition [13] was 0%, the inhibition [14] was “Active” and the inhibition [15] was “Dose-dependent effect”. The inhibition [16] was “Dose-dependent effect”, the inhibition [17] was “Active” and the inhibition [18] was 50%. The inhibition [19] was “Active”, the inhibition [20] was “Active” and the inhibition [21] was “Dose-dependent effect”.

With `CC(=O)O[C@H]1C(=O)[C@@]2(C)[C@H]([C@H](OC(=O)c3ccccc3)[C@]3(O)C[C@H](OC(=O)[C@H](O)[C@@H](NC(=O)c4ccccc4)c4ccccc4)C(C)=C1C3(C)C)[C@]1(OC(C)=O)CO[C@@H]1C[C@@H]2O` the Activity [22] was “Active”, the Activity [23] was “Active” and the Activity [24] was “Active”. The Activity [25] was “Active”, the Activity [26] was “Active” and the Activity [27] was “Active”.

— ChEMBL document CHEMBL4765481, “Sialyltransferase Inhibitors Suppress Breast Cancer Metastasis” (J Med Chem, 2021)
